“Also recorded” adds a separate entry of the source. Read-outs that look alike come from different tables or passages of the source. Non-standard residues stand in square brackets, D forms with d. Residues, ends and D or L forms follow the SMILES beside them. *: point of attachment. Myristoyl = CCCCCCCCCCCCCC(=O)*
Columns and labels:
[1] = tested on: ClbPFL (full-length ClbP); assay: In vitro cleavage of synthetic substrates by ClbPFL, LC-MS detection; format: biochemical, E. coli; conditions: for cleavage by ClbPFL in vitro: LC-MS detection of cleavage product
Description: (§1) The top graph of FIG. 2A depicts LC-MS detection of the prodrug scaffold ([M+H]^+: 343.2597 m/z) released by the hydrolysis of (1) by ClbP in vitro. Reactions were carried out in 50 mM Tris pH 8.0, 200 mM NaCl, 0.1 μM enzyme. 0.02% w/v DDM was added for all reactions involving full-length ClbP (Error bars are SD, n=3). The bottom graph of FIG. 2B depicts kinetic analysis of ClbP acting on synthetic precolibactin-mimic substrate (1). Note that this substrate is insoluble above 200 μM under assay conditions. Rates were calculated by quenching reactions in 1-minute intervals in methanol and quantifying the amount of substrate cleaved by derivatization of the L-alanine product with o-phthaldialdehye (OPA) and fluorescence detection (see Examples) (Error bars are SD, n=3). Substrate is insoluble above 200 μM under assay conditions. All kinetics experiments are averages of 3 independent replicates, reactions were carried out in 50 mM Sodium Phosphate pH 8.0, 200 mM NaCl, 0.02% w/v DDM, 0.1 μM enzyme. The bottom graph of FIG. 2B depicts the approach and substrates sampled in this SAR study. All kinetics experiments are averages of 3 independent replicates, reactions were carried out in 50 mM Sodium Phosphate pH 8.0, 200 mM NaCl, 0.02% w/v DDM, 0.1 μM ClbP-FL (full length) (also referred to herein as ClbPFL). All errors are ±SD.
Optical densities of E. coli cultures were determined with a DU 730 Life Sciences UV/Vis spectrophotometer (Beckman Coulter, Indianapolis, Ind.) by measuring absorbance at 600 nm. Ultracentrifugation was performed on a Beckman-Coulter Optima XE-90 Ultracentrifuge fitted with a type 45 Ti rotor in 70 mL polycarbonate tubes. Solvents and formic acid used for LC-MS were B & J Brand High Purity Solvents (Honeywell Research Chemicals). High-resolution LC-MS analyses of enzyme assays and synthetic compounds were performed on an Agilent 6530 Q-TOF Mass Spectrometer fitted with a dual-spray electrospray ionization (ESI) source. The capillary voltage was set to 3.5 kV, the fragmentor voltage to 175 V, the skimmer voltage to 65 V, and the Oct 1 RF to 750 V. The drying gas temperature was maintained at 275° C. with a flow rate of 8 L/min and a nebulizer pressure of 35 psi. A standard calibrant mix was introduced continuously during all experiments via the dual-spray ESI source. For analytical liquid chromatography, unless otherwise noted, experiments were performed using an Agilent Technologies 1200 series LC on a Hypersil GOLDaq™ C18 reverse phase column (50×3 mm, Thermo Scientific) with the following elution conditions: a gradient from 35% solvent A:65% solvent B to 100% solvent A over 5 minutes, holding at 100% A for 2 minutes, followed by a gradient back to 35% solvent A over 1 minute and holding at 35% solvent A for 3.5 minutes (solvent A: acetonitrile+0.1% formic acid; solvent B: water+0.1% formic acid; flow rate=0.4 mL/minute; injection volume=10 μL). All experiments were performed in positive ion mode, and the masses detected corresponded to [M+H]+ ions unless otherwise noted. Masses were found within 5 ppm of the expected [M+H]+ masses.
For all in vitro assays involving ClbPFL and ClbFL-S95A “Tris assay buffer” refers to a buffer composed of 50 mM Tris, 200 mM NaCl, 0.02% w/v DDM, pH 8.0. Likewise, “phosphate assay buffer” refers to 50 mM sodium phosphate, 200 mM NaCl, 0.02% w/v DDM, pH 8.0.

ClbPFL-S95A = assay: In vitro cleavage of synthetic substrates by inactive mutant, LC-MS detection; format: biochemical, E. coli
Description: as §1
(§2) Optical densities of E. coli cultures were determined with a DU 730 Life Sciences UV/Vis spectrophotometer (Beckman Coulter, Indianapolis, Ind.) by measuring absorbance at 600 nm. Ultracentrifugation was performed on a Beckman-Coulter Optima XE-90 Ultracentrifuge fitted with a type 45 Ti rotor in 70 mL polycarbonate tubes. Solvents and formic acid used for LC-MS were B & J Brand High Purity Solvents (Honeywell Research Chemicals). High-resolution LC-MS analyses of enzyme assays and synthetic compounds were performed on an Agilent 6530 Q-TOF Mass Spectrometer fitted with a dual-spray electrospray ionization (ESI) source. […] All experiments were performed in positive ion mode, and the masses detected corresponded to [M+H]+ ions unless otherwise noted. […]

ClbPpep = assay: In vitro cleavage of synthetic substrates by isolated peptidase domain, LC-MS detection; format: biochemical, E. coli
Description: as §1, §2

ClbPFL = assay: In vitro kinetics assay with ClbPFL (o-phthaldialdehyde derivatization); format: biochemical, E. coli
Description: In vitro kinetics assays with ClbPFL (comparison of substrates 2, 3, and 4 using o-phthaldialdehyde derivatization): Assays were run in triplicate in 1.5 mL deep-well plates. ClbPFL-CHis10 was defrosted from −80° C. stocks on ice, then buffer exchanged into phosphate assay buffer using Zeba Spin 40K MWCO desalting columns (ThermoFisher Scientific). The enzyme was then diluted to 0.6 μM in phosphate assay buffer and 50 μL of this stock was deposited in the appropriate wells. The substrate of interest was prepared in a 2-fold dilution series in phosphate assay buffer. Reactions were initiated by the addition of 250 μL of substrate stock to each assay well to a final concentration of 0.1 μM ClbP, 12.5-200 μM substrate, 3% DMSO and incubated at 25° C. Reaction mixtures were pipetted briefly to mix. […] 50 μL of each supernatant from the quenched reactions and standard curves were then transferred to the appropriate wells, pipetted once to mix, and then fluorescence was immediately measured on a plate reader (Bio-Tek Synergy HTX multimode plate reader, measurement settings −360/40 nm excitation filter, 440/20 nm emission filter, detector gain: 35). Fluorescence was measured every 30 seconds for 10 minutes and the maximum value achieved for each well was used for calculations. […]

[2] = Solubility and membrane permeability as observed in the assays; format: physicochemical; conditions: under assay conditions
[3] = tested on: CCCC(=O)N[C@H](CC(N)=O)C(=O)N[C@@H](C)C(=O)OC; assay: In vitro kinetics of ClbPFL-mediated cleavage of substrates, o-phthaldialdehyde (OPA) derivatization of L-alanine product with fluorescence detection (FIGS. 2B, 10, 11); format: biochemical, E. coli; conditions: pH 8.0
Description: as §1
(§3) FIGS. 10A-10C depict the kinetics of ClbPFL-mediated cleavage of substrates (FIG. 10A) 2, (FIG. 10B) 3, and (FIG. 10C) 4. Each data point is an average of 3 biological replicates with error bars representing 1 SD. Solid lines are non-linear regression fits of data points to the Michaelis-Menten model.
(§4) FIG. 11 depicts the kinetic parameters for substrates 2, 3, and 4. […]
(§5) To determine the key features for substrate recognition by full-length ClbP, we undertook a structure-activity-relationship (SAR) focusing on three key regions of the substrate. […] Using a higher-throughput fluorescence derivatization assay, we determined kinetic parameters for several of these substrates (FIG. 2B). […]

[4] = tested on: CCCCCCCCCCCCCC(=O)N[C@H](CC(N)=O)C(=O)N[C@@H](C)C(=O)OC; assay: as above; format: biochemical, E. coli; conditions: pH 8.0
Description: as §1, §3, §4, §5

[5] = tested on: COC(=O)[C@H](C)NC(=O)[C@@H](CC(N)=O)NC(=O)CCCc1ccccc1; assay: as above; format: biochemical, E. coli; conditions: pH 8.0
Description: as §1, §3, §4, §5

[6] = tested on: CCCCCCCCCCCCCC(=O)N[C@H](CC(N)=O)C(=O)N[C@@H](C)C(=O)OC; assay: Kinetics of ClbPFL-mediated cleavage of substrates 1 and 2 (FIG. 8); format: biochemical, E. coli; conditions: pH 8.0
Excerpt: (§6) FIG. 8 depicts the kinetics of ClbPFL-mediated cleavage of substrates 1 and 2. Each data point is an average of 3 biological replicates with error bars representing 1 SD. Solid lines are non-linear regression fits of data points to the Michaelis-Menten equation.
(§7) As used herein “ClbP” or “colibactin P” refers to a membrane bound periplasmic peptidase that cleaves an N-acyl-D-asparagine motif (the ‘prodrug scaffold’) from the N-terminus of precolibactin to liberate the active colibactin (FIG. 1). The sequences of ClbP are known in the art, e.g., the polypeptide sequence is available in the Uniprot database as accession number Q0P7K6 (SEQ ID NO: 1).
(§8) We obtained purified enzyme by separating the cell components using ultracentrifugation, solubilizing the membranes in an n-dodecyl-β-D-maltoside (DDM)-containing buffer, and per¬forming immobilized metal affinity chromatography. Because the structure of precolibactin has not yet been fully elucidated, we tested purified ClbPFL against a variety of synthetic precolibactin analogues. […] We chose substrate 2 for a more detailed structure—activity relationship (SAR) study. […]

[7] = tested on: CCCCCCCCCCCCCC(=O)N[C@H](CC(N)=O)C(=O)N[C@@H](C)CCC(=O)CC(=O)NC1(C(=O)O)CC1; assay: as above; format: biochemical, E. coli; conditions: pH 8.0
Excerpt: as §6, §7, §8

Row | Compound | cleavage by ClbPFL in vitro [1] | cleavage by ClbPFL-S95A in vitro (ClbPFL-S95A) | cleavage by ClbPpep in vitro (ClbPpep) | kinetic parameters / hydrolysis efficiency compared with the reference substrate (ClbPFL) | other results
1 | CCCCCCCCCCCCCC(=O)N[C@H](CC(N)=O)C(=O)N[C@@H](C)CCC(=O)CC(=O)NC1(C(=O)O)CC1 [(1)] | rapidly in vitro | no cleavage activity | no cleavage activity | comparable | cleavage by ClbPFL-S95A in vitro (ClbPFL-S95A; listed as 2): no activity; cleavage by ClbPpep in vitro (ClbPpep; listed as 2): no activity; also recorded: cannot process; solubility limit [2]: ≤ 200 µM
2 | CCCCCCCCCCCCCC(=O)N[C@H](CCC(N)=O)C(=O)N[C@@H](C)C(=O)OC [(8)] (Myristoyl-[dQ]-Ala-OMe) | no cleavage products were detected | – | – | – | –
3 | ClbPFL (full-length ClbP, ClbPFL-CHis10) (Escherichia coli) | – | – | – | – | Km [3]: 680 ± 470 µM; Km [4]: 130 ± 26 µM; Km [5]: 246 ± 70 µM; Km [6]: 75 ± 23 µM; Km [7]: 16 ± 2 µM
4 | CCCCCCCCCCCCCC(=O)N[C@@H](CC(N)=O)C(=O)N[C@@H](C)C(=O)OC [(7)] (Myristoyl-Asn-Ala-OMe) | no cleavage products were detected | – | – | – | –
5 | CCCCCCCCCCCCCC(=O)N[C@H](CC(=O)O)C(=O)N[C@@H](C)C(=O)OC [(6)] (Myristoyl-[dD]-Ala-OMe) | cleaved in low amounts | – | – | – | amount cleaved by ClbPFL, fold less than (1) ([1]; LC-MS, relative to (1)): ~100 fold
6 | CCCCCCCCCCCCCC(=O)N[C@H](CC(N)=O)C(=O)N[C@@H](C)CCC(=O)CC(=O)NC1(C(=O)O)CC1 [Compound 1] | rapidly in vitro | no activity | no activity | comparable | –

— patent US11040951B2, “Methods and compositions relating to genotoxin colibactin” (PRESIDENT AND FELLOWS OF HARVARD COLLEGE, priority 2018, dated 2021)
